According to patent publication US8580803B2, “Substituted pyrrolo-aminopyrimidine compounds” (ArQule, Inc., priority 2009, dated 2013):

System: not given
Assay: not given
Settings: not given

Row | SMILES | melting point [°C]
1 | NCc1ccc(Nc2ncnc3[nH]cc(C(=O)c4ccccc4)c23)cc1 | 255 to 257
2 | O=C(Cc1cncc(Br)c1)Nc1cccc(Nc2ncnc3[nH]cc(C(=O)c4ccccc4)c23)c1 | > 300
3 | Cn1cc(C(=O)c2ccccc2)c2c(Nc3cccc(N)c3)ncnc21 | 170 to 173
4 | CC(=O)Nc1cccc(Nc2ncnc3[nH]cc(C(=O)c4cccc5ccccc45)c23)c1 | > 300
5 | CC(C)(C)OC(=O)NCc1ccc(Nc2ncnc3[nH]cc(C(=O)c4ccccc4)c23)cc1 | 256 to 258
6 | Nc1cccc(Nc2ncnc3[nH]cc(C(=O)c4ccccc4)c23)c1 | 280 to 282
7 | CCOC(=O)c1cccc(Nc2ncnc3[nH]cc(C(=O)c4ccccc4)c23)c1 | 256 to 258
8 | CNC(=O)c1cccc(Nc2ncnc3[nH]cc(C(=O)c4ccccc4C)c23)c1 | > 300
9 | O=C(Nc1ccc(Nc2ncnc3[nH]cc(C(=O)c4ccccc4)c23)cc1)c1ccccc1 | > 300
10 | O=C(Nc1ccccc1)Nc1cccc(Nc2ncnc3[nH]cc(C(=O)c4ccccc4)c23)c1 | > 300
11 | COC(=O)c1cc(NC(=O)CNC(C)=O)cc(Nc2ncnc3[nH]cc(C(=O)c4ccccc4)c23)c1 | > 300
12 | CNC(=O)c1cccc(Nc2ncnc3[nH]cc(C(=O)c4cccc5ccccc45)c23)c1 | > 300

Target: T1, ACK1 (110-489) (Homo sapiens, UniProt Q07912)
T1 construct: ACK1 110-489 (12.5 μl) were added to each well
T1 sequence (Q07912 110-489, species assumed): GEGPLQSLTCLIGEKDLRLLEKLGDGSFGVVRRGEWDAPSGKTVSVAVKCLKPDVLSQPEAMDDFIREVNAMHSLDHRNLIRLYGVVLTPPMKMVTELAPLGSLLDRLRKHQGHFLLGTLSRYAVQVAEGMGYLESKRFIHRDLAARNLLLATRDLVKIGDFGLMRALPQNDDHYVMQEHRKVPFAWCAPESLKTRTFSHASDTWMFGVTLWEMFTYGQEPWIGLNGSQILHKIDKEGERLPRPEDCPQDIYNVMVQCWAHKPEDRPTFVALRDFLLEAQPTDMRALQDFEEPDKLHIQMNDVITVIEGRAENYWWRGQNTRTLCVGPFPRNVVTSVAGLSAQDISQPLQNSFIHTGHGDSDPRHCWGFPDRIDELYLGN
Assay: ACK1 Activity Assay (AlphaScreen, PYK2-derived peptide)
Assay type: biochemical
Settings: Average of ACK1(110-489), IC50, AlphaScreen (Pyk2); read-out: ACK1 (110-489) IC50
Experimental: The extent of peptide phosphorylation was determined by using acceptor beads conjugated to phosphotyrosine antibody that recognizes the phosphorylated peptide and donor beads conjugated to streptavidin that binds to the biotin on the peptide. Excitation of the donor beads converted ambient oxygen to excited singlet oxygen which when in close proximity to acceptor beads, reacted with acceptor beads where the signal was amplified.
Test inhibitors and controls (N-(2,6-dimethylphenyl)-4-(2-ethoxyphenoxy)-2-[(4-piperazin-1-ylphenyl)amino]pyrimidine-5-carboxamide) were prepared in 10% DMSO at 10× the desired final concentration. […] After a 20-min incubation at room temperature, the kinase reaction was initiated by the addition of 10 μl of PYK2/ATP mixture. […] The plates were incubated for 60 min at room temperature. The reaction was stopped by the addition of 10 μl stop/detection mixture which contains EDTA (final concentration is 10 mM), AlphaScreen™ Streptavidin Donor beads (final concentration is 500 ng/well) and AlphaScreen™ Phospho-tyrosine (P-Tyr-100) Acceptor beads (final concentration is 500 ng/well) were diluted in assay buffer. This reagent addition step was performed in the dark because the AlphaScreen™ beads are light-sensitive. The plate was incubated for 60 min at room temperature in the dark and the plates were read on the Perkin Elmer Envision Multilabel plate reader ([…]).

Row | SMILES | IC50 [µM]
13 | CNC(=O)c1cccc(Nc2ncnc3[nH]cc(C(=O)c4ccccc4C)c23)c1 [drawing 242, N-methyl-3-{[5-(2-methylbenzoyl)-7H-pyrrolo[2,3-d]pyrimidin-4-yl]amino}benzamide] | 0.189
14 | O=C(Nc1ccc(N2CCCCC2)cc1)c1cccc(Nc2ncnc3[nH]cc(C(=O)c4ccccc4)c23)c1 [3-[(5-benzoyl-7H-pyrrolo[2,3-d]pyrimidin-4-yl)amino]-N-(4-piperidin-1-ylphenyl)benzamide] | 31.4
15 | CCNC(=O)Nc1cccc(Nc2ncnc3[nH]cc(C(=O)c4ccccc4)c23)c1 [drawing 275, 1-ethyl-3-(3-{[5-(phenylcarbonyl)-7H-pyrrolo[2,3-d]pyrimidin-4-yl]amino}phenyl)urea] | 1.81
16 | CC(C)C(=O)Nc1ccc(Nc2ncnc3[nH]cc(C(=O)c4ccccc4)c23)cc1 [N-{4-[(5-benzoyl-7H-pyrrolo[2,3-d]pyrimidin-4-yl)amino]phenyl}-2-methylpropanamide] | 4.77
17 | COCc1ccc(CC(=O)Nc2ccc(Nc3ncnc4[nH]cc(C(=O)c5ccccc5)c34)cc2)cc1 [2-[4-(methoxymethyl)phenyl]-N-(4-{[5-(phenylcarbonyl)-7H-pyrrolo[2,3-d]pyrimidin-4-yl]amino}phenyl)acetamide] | 69
18 | O=C(c1ccccc1)c1c[nH]c2ncnc(Nc3cccc(CO)c3)c12 [drawing 276, (4-{[3-(hydroxymethyl)phenyl]amino}-7H-pyrrolo[2,3-d]pyrimidin-5-yl)(phenyl)methanone] | 0.24
19 | O=C(Cn1ccnc1)Nc1ccc(Nc2ncnc3[nH]cc(C(=O)c4ccccc4)c23)cc1 [2-(1H-imidazol-1-yl)-N-(4-{[5-(phenylcarbonyl)-7H-pyrrolo[2,3-d]pyrimidin-4-yl]amino}phenyl)acetamide] | 0.798
20 | CC(C)(C)NC(=O)Nc1cccc(Nc2ncnc3[nH]cc(C(=O)c4ccccc4)c23)c1 [drawing 274, 1-tert-butyl-3-(3-{[5-(phenylcarbonyl)-7H-pyrrolo[2,3-d]pyrimidin-4-yl]amino}phenyl)urea] | 6.65
21 | O=C(Nc1ccc(Nc2ncnc3[nH]cc(C(=O)c4ccccc4)c23)cc1)c1ccc(CN2CCOCC2)cc1 [4-(morpholin-4-ylmethyl)-N-(4-{[5-(phenylcarbonyl)-7H-pyrrolo[2,3-d]pyrimidin-4-yl]amino}phenyl)benzamide] | 10.9
22 | CN(C)CC(=O)Nc1ccc(Nc2ncnc3[nH]cc(C(=O)c4ccccc4)c23)cc1 [N-(4-((5-benzoyl-7H-pyrrolo[2,3-d]pyrimidin-4-yl)amino)phenyl)-2-(dimethylamino)acetamide] | 0.241
23 | CC(=O)Nc1ccc(Nc2ncnc3[nH]cc(C(=O)c4ccccc4)c23)cc1 [drawing 241, N-{4-[(5-benzoyl-7H-pyrrolo[2,3-d]pyrimidin-4-yl)amino]phenyl}acetamide] | 1.43
24 | COC(=O)c1cc(NC(=O)CNC(C)=O)cc(Nc2ncnc3[nH]cc(C(=O)c4ccccc4)c23)c1 [drawing 277, methyl 3-[(N-acetylglycyl)amino]-5-{[5-(phenylcarbonyl)-7H-pyrrolo[2,3-d]pyrimidin-4-yl]amino}benzoate] | 2
25 | O=C(Nc1ccc(Nc2ncnc3[nH]cc(C(=O)c4ccccc4)c23)cc1)c1ccncc1Cl [3-chloro-N-(4-{[5-(phenylcarbonyl)-7H-pyrrolo[2,3-d]pyrimidin-4-yl]amino}phenyl)pyridine-4-carboxamide] | 28.9
26 | NCc1ccc(Nc2ncnc3[nH]cc(C(=O)c4ccccc4)c23)cc1 [drawing 258, (4-{[4-(aminomethyl)phenyl]amino}-7H-pyrrolo[2,3-d]pyrimidin-5-yl)(phenyl)methanone] | 0.446
27 | CC(=O)Nc1cccc(Nc2ncnc3[nH]cc(C(=O)c4cccc(F)c4)c23)c1 [drawing 245, N-(3-{[5-(3-fluorobenzoyl)-7H-pyrrolo[2,3-d]pyrimidin-4-yl]amino}phenyl)acetamide] | 2.29
28 | O=C(c1ccccc1)c1c[nH]c2ncnc(Nc3ccc4cc[nH]c4c3)c12 [(4-((1H-indol-6-yl)amino)-7H-pyrrolo[2,3-d]pyrimidin-5-yl)(phenyl)methanone] | 61.5

Row | SMILES | IC50 [µM]
29 | COc1ccc(Nc2ncnc3[nH]cc(C(=O)c4ccccc4)c23)c(OC)c1 [(4-((2,4-dimethoxy-phenyl)amino)-7H-pyrrolo[2,3-d]pyrimidin-5-yl)(phenyl)methanone] | 4.53
30 | NC(=O)CCC(=O)Nc1ccc(Nc2ncnc3[nH]cc(C(=O)c4ccccc4)c23)cc1 [N-(4-{[5-(phenylcarbonyl)-7H-pyrrolo[2,3-d]pyrimidin-4-yl]amino}phenyl)butanediamide] | 0.646
31 | CCCC(=O)Nc1ccc(Nc2ncnc3[nH]cc(C(=O)c4ccccc4)c23)cc1 [N-{4-[(5-benzoyl-7H-pyrrolo[2,3-d]pyrimidin-4-yl)amino]phenyl}butanamide] | 3.77
32 | O=C(c1ccccc1)c1c[nH]c2ncnc(Nc3cccc(CCO)c3)c12 [drawing 259, (4-{[3-(2-hydroxyethyl)phenyl]amino}-7H-pyrrolo[2,3-d]pyrimidin-5-yl)(phenyl)methanone] | 5.14
33 | O=C(c1ccccc1)c1c[nH]c2ncnc(Nc3ccc(NC(=O)C4CCN(c5ccncc5)CC4)cc3)c12 [N-(4-{[5-(phenylcarbonyl)-7H-pyrrolo[2,3-d]pyrimidin-4-yl]amino}phenyl)-1-pyridin-4-ylpiperidine-4-carboxamide] | 1.27
34 | CN(C)CCC(=O)Nc1ccc(Nc2ncnc3[nH]cc(C(=O)c4ccccc4)c23)cc1 [N-(4-((5-benzoyl-7H-pyrrolo[2,3-d]pyrimidin-4-yl)amino)phenyl)-3-(dimethylamino)propanamide] | 0.415
35 | O=C(CCc1cccnc1)Nc1ccc(Nc2ncnc3[nH]cc(C(=O)c4ccccc4)c23)cc1 [N-(4-{[5-(phenylcarbonyl)-7H-pyrrolo[2,3-d]pyrimidin-4-yl]amino}phenyl)-3-pyridin-3-ylpropanamide] | 4.39
36 | CC(=O)NCCC(=O)Nc1ccc(Nc2ncnc3[nH]cc(C(=O)c4ccccc4)c23)cc1 [3-acetamido-N-(4-((5-benzoyl-7H-pyrrolo[2,3-d]pyrimidin-4-yl)amino)phenyl)propanamide] | 0.776
37 | Cc1cccc(Nc2ncnc3[nH]cc(C(=O)c4ccccc4)c23)c1 [phenyl(4-(m-tolylamino)-7H-pyrrolo[2,3-d]pyrimidin-5-yl)methanone] | 55.4
38 | COCCCC(=O)Nc1ccc(Nc2ncnc3[nH]cc(C(=O)c4ccccc4)c23)cc1 [4-methoxy-N-(4-{[5-(phenylcarbonyl)-7H-pyrrolo[2,3-d]pyrimidin-4-yl]amino}phenyl)butanamide] | 1.02
39 | CN(C)CCCC(=O)Nc1ccc(Nc2ncnc3[nH]cc(C(=O)c4ccccc4)c23)cc1 [4-(dimethylamino)-N-(4-{[5-(phenylcarbonyl)-7H-pyrrolo[2,3-d]pyrimidin-4-yl]amino}phenyl)butanamide] | 2.57
40 | O=C(Nc1ccccc1)Nc1cccc(Nc2ncnc3[nH]cc(C(=O)c4ccccc4)c23)c1 [drawing 260, 1-phenyl-3-(3-{[5-(phenylcarbonyl)-7H-pyrrolo[2,3-d]pyrimidin-4-yl]amino}phenyl)urea] | 28.1
41 | CC(=O)Nc1cccc(Nc2ncnc3[nH]cc(C(=O)c4ccccc4C)c23)c1 [drawing 243, N-(3-{[5-(2-methylbenzoyl)-7H-pyrrolo[2,3-d]pyrimidin-4-yl]amino}phenyl)acetamide] | 1.26
42 | CNC(=O)c1cccc(Nc2ncnc3[nH]cc(C(=O)c4cccc(F)c4)c23)c1 [drawing 244, 3-{[5-(3-fluorobenzoyl)-7H-pyrrolo[2,3-d]pyrimidin-4-yl]amino}-N-methylbenzamide] | 0.914
43 | O=C(Cc1cncc(Br)c1)Nc1cccc(Nc2ncnc3[nH]cc(C(=O)c4ccccc4)c23)c1 [drawing 251, N-{3-[(5-benzoyl-7H-pyrrolo[2,3-d]pyrimidin-4-yl)amino]phenyl}-2-(5-bromopyridin-3-yl)acetamide] | 1.47
